Reference: patent publication US5179107A, “Antiviral quinolinone compounds” (Schering Corporation, priority 1991, dated 1993)
Values joined by “and” are separate entries in the source; they are usually repeats but may differ in a detail not shown here. Identical values can stand only once. Like-named read-outs stand apart in the source and are kept apart here.

Key:
HSV-2 (strain MS) = experiment: HSV-β-GAL assay: transient expression of beta galactosidase in pON 245^ori- transfected HeLa cells infected with HSV-2; type: cell-based; conditions: multiple numbers = additional tests; for IC50: Human alphaherpesvirus 2, HeLa, 24 h
Protocol: (§1) HeLa and Vero cell cultures were maintained in Eagles Minimal Essential Medium which was supplemented with glutamine, penicillin, streptomycin and 10% fetal calf serum (10% EMEM). Stock cultures of HSV-2 (strain MS available from ATCC VR-540) were grown in and harvested from Vero cells. Viral stocks were titered in Vero cells according to established procedures.
Plasmid pON 245^ori- contains the promoter of the HSV-1 thymidine kinase (tk) gene located immediately 5' of the E. coli lac Z gene. In this arrangement, the tk promoter controls transcription from the bacterial gene in transient expression assays. Additionally, an SV40 polyadenylation signal is present at the 3' end of the lac Z gene to allow for the efficient translation of the mRNA in eucaryotic cells. The expression of beta galactosidase in a transient assay using pON 245^ori- is dependent upon superinfection of the transfected cells with HSV. […] For example, see U.S. application Ser. No. 07/435,491 filed Sep. 5, 1989, the disclosure of which is incorporated herein by reference thereto.
HeLa cells were seeded into 96 well microtiter plates and allowed to grow to 80% confluency (approximately 35000 cells/well). One half microgram of plasmid pON 245^ori- DNA was introduced into the cells of each well by the […] precipitation technique (Grahman and Van der Eb, 1973). Four to six hours later, the cells were rinsed with Hank's Balanced Salt Solution (HBSS), overlaid with 10% EMEM and incubated at 37° C. At 24 hrs post-transfection, cells were rinsed, overlaid with 10% EMEM again and re-incubated at 37° C. At 48 hrs. post-transfection, cells were rinsed and overlaid with either EMEM containing 2% fetal calf serum (2% EMEM), 2% EMEM containing HSV-2 (strain MS, Multiplicity of infection [moi]=5 pfu/cell) or 2% EMEM containing HSV-2 and the appropriate concentration of the compound to be tested. Twenty-four hrs later, the cells were harvested and assayed for beta galactosidase activity as described below.
(§2) All determinations of beta galactosidase activity were performed in 96 well microtiter plates. The intracellular level of beta galactosidase activity in each well was determined from cell lysates of the monolayer cultures. […] The generation of fluorescent product was quantified on a Microfluor microfluorimeter (Dynatech) after addition of 0.1M glycine, pH 10.3 (Spaete and Mocarski, 1985). The inhibitory activity of a compound was plotted versus the concentration and an IC50 value (the concentration of compound required to reduce beta glactosidase expression by 50%) was obtained for each compound tested.
The in-vitro anti-HSV activity of compounds of this invention is set forth in Table I. More than one number for a particular entry indicates the results for additional tests.

[1] = Cytotoxicity, ^3 H-LEU assay (HeLa cell translation); type: cell-based; conditions: human, hela cells, inhibition of cellular translational activity, overnight/24 hrs incubation, read-out: CYTOTOXICITY ^3 H-LEU ASSAY IC50
Protocol: as §1
(§3) HeLa cells were treated with inhibitory compound for 24 hrs, after which levels of translational activity were assayed.
(§4) For assay of translational activity, HeLa cultures were grown to 80% confluency in 96 well microtiter plates, treated with appropriate concentrations of compound in 2% EMEM during an overnight incubation at 37° C., then rinsed with HBSS and overlaid with […] of 2% EMEM containing 8 uCi of tritiated leucine (^3 H-LEU, […], Amersham Corp., Arlington Heights Ill.). After a 1 hr incubation at 36.5° C., the cells were rinsed twice with phosphate buffered saline (PBS) and lysed in 400 ul/well of 1×PBS, 0.5% sodium dodecyl sulphate (SDS). After a 10 min incubation at 36.5° C., the contents of the well were transferred to a well in a Millititer HA microfiltration plate (Millipore Corp., Bedford, Mass.). The TCA insoluble proteins were precipitated onto the filter disc by a 10 min fixation with 5% TCA, followed by filtration under vacuum and three 10 minute rinses with 95% ethanol. The filters were dried at room temperature, cut from the milltitier plate and transferred to scintillation vials. TCA precipitable counts were assayed in 5 ml of Scintisol (Isolab, Akron, Ohio). The inhibitory activity of a compound was plotted versus the concentration and an IC50 value (that concentration of the compound required to decrease cellular translational activity by 50%) was derived for each compound.

HeLa cells = experiment: as above; type: cell-based; conditions: inhibition of cellular translational activity, overnight/24 hrs incubation, 1440 min
Protocol: as §1, §3, §4

CMV (strain Towne) = experiment: CMV-β-Gal assay: transient expression of beta galactosidase, plasmid pON249 ΔNH3, in human foreskin fibroblasts; type: cell-based; conditions: multiple numbers = additional tests; for ANTI-CMV ACTIVITY CMV-β-Gal ASSAY IC50: CMV strain Towne, human foreskin fibroblasts; for IC50: Human betaherpesvirus 5, Fibroblast, read-out: ANTI-CMV ACTIVITY CMV-β-Gal ASSAY IC50, CMV strain Towne, human foreskin fibroblasts
Protocol: as §2
The in-vitro CMV activity of the compounds represented by Formulas 1.1 and 1.3 were determined using the following CMV assay.
Human foreskin fibroblast (HHF) cell cultures were grown in 10% EMEM. CMV (strain Towne received from Stanford University) was grown and titered in HHF cells. Plasmids pON249 ΔNH3, containing CMV promoter genes, were used in the β-galactosidase transient expression assay as shown above.
More than one number for a particular entry indicates the results of additional tests.

[2] = CMV toxicity assay, ^3 H-LEU assay in HFF cells; type: cell-based; conditions: human, read-out: CYTOTOXICITY ^3 H-LEU ASSAY IC50 (CMV toxicity assay)
HSV [3] = conditions: added to lidocaine or lidocaine hydrochloride; U.S. Pat. No. 4,757,088; cited from earlier work
HSV-2, strain MS = experiment: Prophylactic guinea pig model of HSV infection (genital lesions, Maximum Lesion scores); type: in vivo; conditions: subcutaneous, 60 mg per kg, every eight hours for 10 days, from 24 hrs prior to infection
Protocol: The in vivo assessment of anti-HSV efficacy was determined in the prophylactic guinea pig model of HSV infection described by Stansberry et al (1982). Dosing of guinea pigs was comprised of an initial treatment with test compound given 24 hrs prior to virus infection and subsequent administration of the compound every eight hours (T.I.D.) for a total of 10 days. Test compounds were administered subcutaneously in 0.5% buffered methyl cellulose at a dose of 60 mg per kg body weight of the animal. Animals were monitored daily for the developement of genital lesions and neurological symptomology, both of which were recorded and compared to the results obtained with parallel groups which received placebo or acyclovir treatment. Efficacy was evaluated for each compound by scoring the ability of the compound to ameliorate genital lesions produced by infection with HSV-2, strain MS, expressed as Maximum Lesion scores (MLS) on a scale of 1 (least lesions) to 4 (severe lesions).

HSV-1 = conditions: U.S. Pat. No. 4,757,088; cited from earlier work
HSV-2 = conditions: U.S. Pat. No. 4,757,088; cited from earlier work
herpes virus = conditions: U.S. Pat. No. 4,757,088; cited from earlier work
HSV [4] = conditions: U.S. Pat. No. 4,757,088; cited from earlier work
[5] = HSV-2 strain MS, moi 5 pfu/cell, HeLa cells, 24 hrs, read-out: ANTI-HSV ACTIVITY HSV-β-GAL ASSAY IC50

## CCCCCCCn1c(=O)c(O)c(O)c2ccccc21 [Formula 1.3]
HSV-2 (strain MS); HSV-2 strain MS, moi 5 pfu/cell, HeLa cells, 24 hrs
  ANTI-HSV ACTIVITY HSV-β-GAL ASSAY IC50: 2 mg/L and 3 mg/L
HSV-2 (strain MS); [5]
  IC50: < 3 mg/L
[1]
  CC50 at 24 h: 37 mg/L
HeLa cells
  CYTOTOXICITY ^3 H-LEU ASSAY IC50: 30 mg/L
CMV (strain Towne)
  ANTI-CMV ACTIVITY CMV-β-Gal ASSAY IC50: 9 mg/L
  IC50: 13 mg/L
[2]
  CC50: 25 mg/L

## Cn1c(=O)c(OC(=O)c2ccccc2)c(OC(=O)c2ccccc2)c2ccccc21 [Formula 1.9]
HSV-2 (strain MS); [5]
  IC50: 20 mg/L
[1]
  CC50 at 24 h: 58 mg/L

## COc1c(OC)c2ccccc2n(C)c1=O [Formula 1.11]
HSV-2 (strain MS); [5]
  IC50: 25 mg/L
[1]
  CC50 at 24 h: > 100 mg/L

## CC(C)(CO)[C@@H](O)C(=O)NCCCO [dexpanthenol]
HSV [3]
  effect of addition to lidocaine or lidocaine hydrochloride on their antiviral activity: significantly enhances the antiviral activity

## CC(C)(CO)[C@@H](O)C(=O)NCCC(=O)O [pantothenic acid]
HSV [3]
  effect of addition to lidocaine or lidocaine hydrochloride on their antiviral activity: significantly enhances the antiviral activity

## Cn1c(=O)c(OC(=O)c2ccc[nH]2)c(OC(=O)c2ccc[nH]2)c2ccccc21 [Formula 1.5]
[1]
  CC50 at 24 h: 28 mg/L

## Cn1c(=O)c(OC(=O)c2cccs2)c(OC(=O)c2cccs2)c2ccccc21 [Formula 1.8]
HSV-2 (strain MS); [5]
  IC50: 19 mg/L
[1]
  CC50 at 24 h: > 50 mg/L

## Cn1c(=O)c(O)c(O)c2ccccc21 [Formula 1.1]
HSV-2 (strain MS); read-out: ANTI-HSV ACTIVITY HSV-β-GAL ASSAY IC50, HSV-2 strain MS, moi 5 pfu/cell, HeLa cells, 24 hrs
  IC50: < 3 mg/L
[1]
  CC50 at 24 h: 21 mg/L
CMV (strain Towne)
  ANTI-CMV ACTIVITY CMV-β-Gal ASSAY IC50: 1 mg/L
  IC50: 1.5 mg/L
[2]
  CC50: 36 mg/L
HSV-2, strain MS
  In-vivo anti-HSV activity: inactive

## O=c1c(O)c(O)c2ccccc2n1Cc1ccccc1 [Formula 1.2]
[1]
  CC50 at 24 h: 32 mg/L

## O=c1c(O)c(O)c2ccccc2n1-c1ccccc1 [Formula 1.6]
HSV-2 (strain MS); [5]
  IC50: 9 mg/L
[1]
  CC50 at 24 h: 8 mg/L

## CCC(=O)Oc1c(OC(=O)CC)c2ccccc2n(C)c1=O [Formula 1.10]
HSV-2 (strain MS); [5]
  IC50: 17 mg/L
[1]
  CC50 at 24 h: 34 mg/L

## Cn1c(=O)c(OC(=O)c2ccc(Br)o2)c(OC(=O)c2ccc(Br)o2)c2ccccc21 [Formula 1.7]
HSV-2 (strain MS); [5]
  IC50: 10 mg/L
[1]
  CC50 at 24 h: > 50 mg/L

## Cn1cccc1C(=O)Oc1c(OC(=O)c2cccn2C)c2ccccc2n(C)c1=O [Formula 1.4]
[1]
  CC50 at 24 h: > 100 mg/L

## CCN(CC)CC(=O)Nc1c(C)cccc1C [lidocaine, 2-(diethylamino)-N-(2,6-dimethylphenyl)acetamide]
HSV-1
  antiviral activity in cell culture against HSV-1: antiviral agent
HSV-2
  antiviral activity in cell culture against HSV-2: antiviral agent
Herpes virus
  treatment of herpes virus infections of mammals: able to treat herpes virus infections of mammals
HSV [4]
  treatment of HSV oral and genital lesions in humans: particularly effective
